# Results as given in the OPERA property sets (Mansouri et al. 2018).
# Peptide text beside a SMILES is read from it. * marks the point of attachment. NHtBu = CC(C)(C)N*
row,SMILES,logP
1,COc1ccccc1N(C)C,1.63
2,Cc1ccc(N)c(C)c1,1.68
3,CC(=O)Oc1ccccc1C,1.93
4,Fc1cccc2cccnc12,2.19
5,O=C1C=CCCC1,0.61
6,CN1CCOCC1,-0.33
7,CC(=O)NC(C(=O)NC(CCC(N)=O)C(N)=O)C(C)C (stereo not drawn) (Ac-Val-Gln-NH2; configuration not given here),-1.82
8,O=C(O)Cc1cccc(Br)c1,2.37
9,Cc1ccc2[nH]ccc2c1,2.68
10,Ic1ccc2ccccc2n1,3.04
11,CC(C)Oc1ccc(CC#N)cc1,2.53
12,Cc1ccccn1,1.11
13,CCCCCCn1cc(C)c(=O)[nH]c1=O,1.93
14,CC(=O)N[C@H](C(=O)N[C@H](C(N)=O)C(C)C)C(C)C (Ac-Val-Val-NH2),-0.32
15,O=C(O)Cc1ccccc1Nc1ccccc1,3.49
16,CC(=O)c1csc2ccccc12,2.78
17,CSc1ccc(SC)nn1,1.85
18,CCCCNc1ccccc1OC,2.85
19,CCn1cc(C)c(=O)[nH]c1=O,-0.15
20,FC(F)(Cl)C(F)(F)Cl,2.82
21,COc1cccc2c1C(=O)c1c(O)c3c(c(O)c1C2=O)CC(O)(C(C)O)CC3OC1CC(N2CCOCC2)C(O)C(C)O1 (stereo not drawn),2.03

row,SMILES,logP
1,CC(=O)c1cccs1,1.25
2,NC(C(=O)OCn1ncc2c(=O)[nH]cnc21)c1ccccc1 (stereo not drawn),-0.15
3,CN,-0.57
4,CCOC(=O)c1ccoc1,1.78
5,CC(=O)c1cccc(OCC(=O)O)c1,0.98
6,O=C(O)c1c2ccccc2cc2ccccc12,3.85
7,O=C(O)CCS,0.43
8,CNCC(O)c1ccc(O)c(OC)c1 (stereo not drawn),-0.64
9,O=C(c1ccccc1)c1cccnc1,1.88
10,Clc1ccc(C(c2ccc(Cl)cc2)C(Cl)(Cl)Cl)cc1,6.91
11,CCCCCCn1nnc2ccccc21,3.7
12,Cc1nn(-c2ccccc2)c(C)c1N=O,2.28
13,O=[N+]([O-])c1ccc(N=C=S)cc1,3.62
14,CCCCOc1ccc(CC(=O)NO)cc1,2.08
15,COc1ccc(S(I)=C(N(C)C)N(C)C)c([N+](=O)[O-])c1 (stereo not drawn),-0.22
16,O=Cc1ccc([N+](=O)[O-])cc1,1.56
17,ON=C1C=CC(=NO)C=C1,1.49
18,CCC12CC3CC(CC(N)(C3)C1)C2,3.4
19,CSc1cccc(N)c1,1.45
20,S=C1CCCCCCN1,1
21,COC(COC(N)=O)C1=C(N2CC2)C(=O)C(C)=C(N2CC2)C1=O (stereo not drawn),-0.15

row,SMILES,logP
1,O=C(O)Cc1cccc(F)c1,1.65
2,c1ccc2c(c1)ccc1ncccc12,3.43
3,O=C(Nc1ccccc1)Nc1ccccc1,3
4,O=C(O)Cc1ccccc1Nc1cccc(Cl)c1Cl,4.86
5,Cc1cccc(OCC(O)CNC(C)C)c1 (stereo not drawn),1.93
6,CN(C)C=CC#N,0.47
7,CNC(=O)Oc1ccc(I)cc1,2.46
8,COc1c(O)c(OC)c(Cl)c(Cl)c1Cl,3.74
9,N#Cc1ccccc1O,1.61
10,CCc1nnc(NS(=O)(=O)c2ccc(N)cc2)s1,1.01
11,CN(C)C(N(C)C)=S(I)c1ccc(Cl)cc1 (stereo not drawn),-0.2
12,CCOC(=O)C(F)(F)C(F)(F)F,2.12
13,N#CCNc1ccccc1C(N)=O,0.5
14,CCCNc1ccccc1,2.45
15,COc1ccc(CN(CCN(C)C)c2ccccn2)cc1,3.27
16,CCC(C)c1cccc(C(C)CC)c1O (stereo not drawn),4.36
17,COc1cc(NS(=O)(=O)c2ccc(N)cc2)nc(C)n1,0.61
18,Cc1cc(C#N)ccn1,0.81
19,CC1CC2C3CC(F)C4=CC(=O)C(Cl)=CC4(C)C3(F)C(O)CC2(C)C1(O)C(=O)CO (stereo not drawn),2.58
20,Clc1ccc(-c2cccc(Cl)c2Cl)cc1,5.42
21,O=C(O)c1ccc(C(F)(F)F)cc1,3.1

row,SMILES,logP
1,CC=Cc1ccccc1,3.35
2,Clc1ccc(-c2cc(Cl)c(Cl)cc2Cl)cc1Cl,7.12
3,COc1cc(C(O)CO)ccc1O (stereo not drawn),-0.58
4,O=NN1CCN(N=O)CC1,-0.85
5,Cc1ccnc2c(O)cccc12,2.41
6,Nc1ccn([C@@H]2C=C(CO)[C@@H](O)[C@H]2O)c(=O)n1,-2.45
7,CCCC[N+](=O)[O-],1.47
8,Nc1ccc(C(=O)Oc2ccc(Br)cc2)c(O)c1,3.46
9,NC(=O)C(c1ccccc1)c1ccccn1 (stereo not drawn),0.83
10,CN(C)S(=O)(=O)c1ccc(N)cc1,0.67
11,CC(=O)c1ccc([N+](=O)[O-])cc1,1.53
12,N#CCc1ccccc1,1.56
13,C=CC(=O)OCCO,-0.21
14,CC(=O)CCC1CC1,1.5
15,Cl[C@@H]1CCCC[C@H]1Cl,3.21
16,CNc1nc2c3cccnc3ccc2n1C,1.82
17,CCCOP(=O)(OCCC)Oc1ccc(SC)cc1,3.67
18,CC(C)(C)c1cccc(C(C)(C)C)n1,4.14
19,CCCCCCc1ccncc1,4.35
20,CC(=O)NC(C)C(=O)NC(CC(=O)O)C(=O)NC(C)C(=O)NC(C)(C)C (stereo not drawn) (Ac-Ala-Asp-Ala-NHtBu; configuration not given here),-0.74
